According to publication PMC10253536, “Bradykinin and Neurotensin Analogues as Potential Compounds in Colon Cancer Therapy” (International Journal of Molecular Sciences, 2023):
Values belong to the compound of their own block, whether it stands above or below them. Non-standard residues stand in square brackets, D forms with d. Residues, ends and D or L forms follow the SMILES beside them. No end group written: not given here. *: point of attachment. Acetyl(1-adamantyl) = O=C(CC12CC3CC(CC(C3)C1)C2)*; Hyp = O=C(O)[C@@H]1C[C@@H](O)CN1; 2Thi = N[C@@H](Cc1cccs1)C(=O)O; Ac6c = NC1(C(=O)O)CCCCC1

Tests used:
[1] = Stability test in human plasma; details: for stability in human plasma (in words): 0.4 mg/mL, 37 °C, up to 24 h, TCA or formic acid/urea procedure depending on peptide, RP-HPLC 223 nm, at least triplicates
Experimental: To check the stability of the studied peptides in human plasma, 24 h incubation of peptides in the appropriate medium was performed. For the studies, two methods were used. The first one involved the presence of trichloroacetic acid (TCA) as a protein precipitating reagent, while the second one involved a mixture of formic acid and urea. […] The procedure with the mixture of the formic acid and urea was used for BK-3, BK-4, BK-6, and BK-8.
• A. TCA procedure for peptides: BK, BK-1, BK-2, BK-5, BK-7, NT, and NT analogues.
Peptide stability tests were performed according to a TCA stability assay based on the method used by Nguyen et al.. Peptides were dissolved in water, mixed with 25% human plasma to a final concentration of 0.4 mg/mL, and incubated at 37 °C with agitation (300 rpm, Thermomixer, Eppendorf AG, Hamburg, Germany). After 0, 1, 2, 3, 4, and 24 h, […] of the solution was taken and mixed with 15% TCA to obtain a final concentration of 3% (v/v). The samples were incubated in ice for 10 min and centrifuged for 10 min (12,000 rpm, Microfuge 16, Beckman Coulter, Brea, CA, USA).
In the second method, peptides were dissolved in water, mixed with 25% human plasma to a final concentration 0.4 mg/mL, and incubated at 37 °C with agitation (300 rpm, Thermomixer, Eppendorf AG, Hamburg, Germany). After 0, 1, 2, 3, 4, and 24 h, […] of the solution was taken and mixed with 25 μL of a mixture of 1050 µL 6 M urea, 330 µL formic acid, and 120 µL water to a final peptide concentration of 0.4 mg/mL. The samples were incubated in ice for 10 min and centrifuged for 10 min (12,000 rpm, Microfuge 16, Beckman Coulter, Brea, CA, USA). Supernatants were analyzed by RP-HPLC on column Kinetex (2.6 µm, XB-C18 100 Å 150 × 2.1 mm) (Phenomenex, Torrance, CA, USA) using a linear gradient of acetonitrile (1–80% over 20 min) with detection at 223 nm. Peptides were quantified by their peak areas relative to the initial peak areas (0 min). All stability tests were performed at least in triplicates. As control samples, peptides dissolved only in water under the same conditions were used.

[2] = test system: HCT116 cells; experiment: Cell death assay (7-AAD, flow cytometry), spherical HCT116 cells; type: cell-based, human; details: spherical HCT116, 500 µg/mL, 24 h, vs untreated control, n = 4
Text: We evaluated the percentage of nonviable cells of HTC116 following analogue treatment via a flow cytometric assay using 7-Amino Actinomycin D (7-AAD) dye according to the procedure presented in the Materials and Methods Section 4.6. This dye is excluded by living cells but binds selectively to the DNA of damaged permeabilized cells. We learned that the number of 7AAD-positive cells changed according to different scenarios in CRC cells cultured in adherent and spherical forms following the incubation with BK and NT analogues (Figure 6).
Figure 6 Analysis of the viability of colorectal cancer HCT116 cells expanded in spherical (A,B) or adherent (C,D) form and treated with bradykinin (A,C) and neurotensin analogues (B,D) (500 µg/mL) for 24 h. Cells were incubated with 7-AAD and analyzed by flow cytometry. The y-axis presents the fold increase in the frequency of 7-AAD+ cells compared to untreated control cells. (* p < 0.05 vs. untreated control cells; • p < 0.05 vs. BK/NT-treated cells; ANOVA Kruskal–Wallis test, n = 4). Data presented as bars and whiskers representing the median with min–max values).
Following BK and NT analogue treatment of HCT116 cells, we evaluated the proportion of dead cells in our samples. For this purpose, we used a 7AAD Via Probe (BD Biosciences, San Jose, CA, USA). […]

[3] = test system: HCT116 cells; experiment: Flow cytometry phenotype (CD133, CD44, CD29), HCT116 colonospheres; type: cell-based, human; details: spherical HCT116, 500 µg/mL, 24 h, vs untreated control, n = 5
Experimental: Figure 4 The phenotype of the colorectal cancer HCT116 cell line expanded in the form of colonospheres and treated with (A,C,E) bradykinin and (B,D,F) neurotensin analogues (500 µg/mL) for 24 h. The data are presented as fold change of frequency of cells with given phenotype in relation to untreated control cells. The control value is set at a level of 1. Bars and whiskers represent the median with min–max values (* p < 0.05 vs. untreated control cells; • p < 0.05 vs. BK treated cells; ANOVA Kruskal–Wallis test, n = 5).
Similarly as for the adherent HTC116 cells, we also tested the spherical form with respect to the presence of CD29 and CD44 integrins on their surface but not only in CD133+ (Figure 4C,D) but also in CD133 (Figure 4E,F). In these studies, the count of CD133+, CD44+, and CD29+ cells was not affected in spherical culture, while at the same time, we observed that CSCs in colonospheres were more likely to change the level of these markers within the CD133-negative population. […] In contrast, the analogues BK-4, BK-6, and BK-8 decreased the number of these cells.
HCT116 in both adherent (5 × 10^4 cells/mL in 24-well plate) and spherical forms (8 × 10^5/mL cells in 24-well ultra-low attachment plates) were maintained in appropriate medium. […]

- stability in human plasma (in words) ([1]; 25% human plasma): most stable
Compound: N=C(N)NCCC[C@@H](N)C(=O)N[C@@H](CCCNC(=N)N)C(=O)N1CCC[C@H]1C(=O)N1C[C@H](O)C[C@H]1C(=O)NCC(=O)N[C@@H](Cc1cccs1)C(=O)N[C@@H](CO)C(=O)N[C@H](Cc1ccccc1)C(=O)NC1(C(=O)N[C@@H](CCCNC(=N)N)C(=O)O)CCCC1 [BK-2] (HELM PEPTIDE1{[dR].R.P.[Hyp].G.[O=C([C@H](Cc1cccs1)N[*:1])[*:2]].S.[dF].[O=C(C1(N[*:1])CCCC1)[*:2]].R}$$$$V2.0)

- stability in human plasma (in words) ([1]; 25% human plasma): least stable
- remaining at 24 h, 0.4 mg/mL ([1]; human, 25% human plasma): ~40%
Compound: N=C(N)NCCC[C@H](NC(=O)[C@H](Cc1cccs1)NC(=O)C1(NC(=O)[C@H](CO)NC(=O)[C@H](Cc2cccs2)NC(=O)CNC(=O)[C@@H]2C[C@@H](O)CN2C(=O)[C@@H]2CCCN2C(=O)[C@H](CCCNC(=N)N)NC(=O)[C@@H](CCCNC(=N)N)NC(=O)CC23CC4CC(CC(C4)C2)C3)CCCCC1)C(=O)O [BK-3]

- stability in human plasma (in words) ([1]; 25% human plasma): most stable
Compound: N=C(N)NCCC[C@H](NC(=O)C1(NC(=O)[C@@H](Cc2ccccc2)NC(=O)[C@H](CO)NC(=O)[C@H](Cc2cccs2)NC(=O)CNC(=O)[C@@H]2C[C@@H](O)CN2C(=O)[C@@H]2CCCN2C(=O)[C@H](CCCNC(=N)N)NC(=O)[C@@H](CCCNC(=N)N)NC(=O)CC23CC4CC(CC(C4)C2)C3)CCCCC1)C(=O)O [BK-4] ({Acetyl(1-adamantyl)}-[dR]RP[Hyp]G[2Thi]S[dF][Ac6c]R-OH)

- stability in human plasma (in words) ([1]; 25% human plasma): most stable
Compound: N=C(N)NCCC[C@@H](N)C(=O)N[C@@H](CCCNC(=N)N)C(=O)N1CCC[C@H]1C(=O)N1C[C@H](O)C[C@H]1C(=O)NCC(=O)N[C@@H](Cc1cccs1)C(=O)N[C@@H](CO)C(=O)N[C@H](Cc1ccccc1)C(=O)N1CCCC[C@H]1C(=O)N[C@@H](CCCNC(=N)N)C(=O)O [BK-5] (HELM PEPTIDE1{[dR].R.P.[Hyp].G.[O=C([C@H](Cc1cccs1)N[*:1])[*:2]].S.[dF].[O=C([C@@H]1CCCCN1[*:1])[*:2]].R}$$$$V2.0)

- remaining at 24 h, 0.4 mg/mL ([1]; human, 25% human plasma): 70%
Compound: N=C(N)NCCC[C@H](NC(=O)[C@H](Cc1cccs1)NC(=O)[C@H]1CCCCN1C(=O)[C@H](CO)NC(=O)[C@H](Cc1cccs1)NC(=O)CNC(=O)[C@@H]1C[C@@H](O)CN1C(=O)[C@@H]1CCCN1C(=O)[C@H](CCCNC(=N)N)NC(=O)[C@@H](CCCNC(=N)N)NC(=O)CC12CC3CC(CC(C3)C1)C2)C(=O)O [BK-8]

- stability in human plasma (in words) ([1]; 25% human plasma): better stability than the native peptide
Compound: CC(C)C[C@H](NC(=O)[C@@H](NC(=O)[C@H](Cc1ccc(O)cc1)NC(=O)[C@@H]1CCCN1C(=O)[C@H](CCCCN)NC(=O)[C@H](CCCCN)NC(=O)CNC(=O)[C@H](CCC(=O)O)NC(=O)[C@@H]1CCCN1)C(C)(C)C)C(=O)O [NT-14] (HELM PEPTIDE1{P.E.G.K.K.P.Y.[CC(C)(C)[C@H](N[*:1])C(=O)[*:2]].L}$$$$V2.0)

Compound: Neurotensin [NT]
- number of nonviable 7AAD+ cells, spherical form [2]: prominently increased
- CD133-CD44+CD29+ cell count in colonospheres [3]: significantly increasing

Compound: RPPGFSPFR [BK, Bradykinin]
- remaining at 4 h, 0.4 mg/mL ([1]; human, plasma): 96%
- remaining at 24 h, 0.4 mg/mL ([1]; human, plasma): ~50%
